{"source": "patent US12295938B2", "about": "“Composition for treating castration-resistant prostate cancer, comprising quassinoids” (SAMSUNG LIFE PUBLIC WELFARE FOUNDATION, priority 2019, dated 2025)", "key": {"[1]": {"tested_on": "RWPE-1, DU145, PC3, LNCaP, C4-2B, C4-2B-MDVR and 22RV1 cells", "assay": "MTT cell growth assay on normal prostate and prostate cancer cell lines", "assay_type": "cell-based", "conditions": "1 nM to 5 nM, 72 hours; versus normal prostate cells and AR-negative prostate cancer cells", "method": "Bruceantin was analyzed for inhibitory activity against cell growth of normal prostate cells (RWPE-1), AR-negative prostate cancer cells (DU145, PC3), AR-positive hormone-dependent prostate cancer cells (LNCaP, C4-2B), AR- & AR-V7-positive castration-resistant prostate cancer cells (C4-2B-MDVR and 22RV1) by an MTT assay method.\nIn brief, the cell lines were each seeded at a density of 1×10^4 cells/well into 96-well plates and incubated with each of the drugs at three concentrations ranging from 1 nM to 5 nM for 72 hours. Afterwards, an MTT dye solution and a solubilization solution/stop mix were added according to an MTT assay method, followed by reading absorbance at 570 nm to analyze cell viability. The data are depicted in FIG. 6."}, "[2]": {"tested_on": "22RV1-xenografted mouse models", "assay_type": "in vivo", "set-up": "Tumor (ave): unit not given here", "conditions": "for Tumor (ave): 1 mg/kg every 3 days subcutaneous", "method": "(§1) While being subcutaneously injected with bruceantin at a dose of 1 mg/kg/every 3 days, 22RV1-xenografted mouse models were monitored for inhibitory effects on tumor growth and body weights."}, "[3]": {"assay": "Hematobiochemical toxicity assay in 22RV1 xenograft mice", "assay_type": "in vivo, mouse", "conditions": "for ALT (ave) / AST (ave) / AST/ALT (ave) / CK (ave) / Cr (ave) / LDH (ave): mouse, in vivo", "method": "Briefly, in order to analyze toxicity of bruceantin in vivo, bloods from 22RV1 xenograft […] 3 days […] and oral administration at a dose of 2 mg/kg/every 2 days (p.o.), and the results are depicted in FIG. 10 and summarized in Table 13. • ALT: Alanine transaminase • AST: Aspartate transaminase • LDH: Lactate dehydrogenase • CR: Creatinine • CPK: Creatine phosphokinase"}, "[4]": {"tested_on": "AR transcriptional activity", "assay": "MMTV-LUC luciferase reporter assay in 22RV1 cells, DHT+ (screening and IC50)", "assay_type": "cell-based", "conditions": "Homo sapiens", "procedure": "(§2) A library of antimalarial agents was screened using a luciferase reporter assay to measure changes in AR/AR-V7 transcriptional activity.\n(§3) Screening was made primarily with 10 μM of each drug."}, "22RV1 cells": {"tested_on": "22RV1 cells", "assay": "MTT cell growth inhibition assay, 22RV1", "assay_type": "cell-based", "conditions": "22RV1 cells", "procedure": "In brief, 22RV1 cells were seeded at a density of 1×10^4 cells/well into 96-well plates and treated with each drug at 6 concentrations ranging from 5 nM to 200 nM for 72 hours. Afterwards, an MTT dye solution and a solubilization solution/stop mix were added according to an MTT assay method, followed by reading absorbance at 570 nm to analyze cell viability and IC50."}, "[5]": {"tested_on": "hormone-dependent AR transcriptional activity", "assay": "MMTV-LUC reporter assay in LNCaP cells, hormone-dependent AR transcriptional activity", "assay_type": "cell-based", "conditions": "Homo sapiens, LNCaP, read-out: IC50 (nM) DHT+"}, "[6]": {"conditions": "mouse, in vivo; for AST/ALT (ave): sc", "method": "FIG. 8b is a graph showing changes in blood AST/ALT ratio with doses of bruceantin subcutaneously injected to mice according to an embodiment of the present disclosure.\nas §1"}, "[7]": {"tested_on": "22RV1 metastasis mouse models", "assay_type": "in vivo", "conditions": "2 mg/kg every 2 days oral", "method": "In order construct metastasis mouse models with the castration-resistant prostate cancer cell line 22RV1, the cells were subcutaneously injected into nude mice and the tumors was grown. Then, the tumors were harvested and injected into the left cardiac ventricle of nude mice to construct metastasis mouse models (see FIG. 13).\nIn the metastasis mouse models using the castration-resistant prostate cancer cell line 22RV1, bruceantin was analyzed for inhibitory effect on tumor metastasis and growth. In brief, the metastasis mice were monitored for inhibitory effects on tumor metastasis and growth and body weight while bruceantin was orally administered at a dose of 2 mg/kg/every 2 days thereto. The results are depicted in FIGS. 14a and 14b and Table 14."}, "[8]": {"tested_on": "22RV1 xenograft mouse models", "assay_type": "in vivo", "set-up": "Tumor (ave): unit not given here", "conditions": "2 mg/kg every 2 days oral", "method": "In mouse models xenografted with the castration-resistant prostate cancer (CRPC) cell line 22RV1, bruceantin was analyzed for inhibitory effect on tumor growth. To this end, bruceantin was orally administered at a dose of 2 mg/kg/every 2 days to 22RV1 xenograft mouse models during which inhibition effects on tumor growth and body weights were monitored. The results are depicted in FIGS. 9a and 9b and Tables 11 and 12."}, "[9]": {"conditions": "mouse, in vivo", "method": "Anatomical and histological toxicity assays were performed on livers, kidneys and spleens from the mice subcutaneously injected with bruceantin. In order to analyze in vivo toxicity of bruceantin, liver, kidney, and spleen tissues from 22RV1 xenograft mouse models were analyzed after subcutaneous injection at a dose of 1 mg/kg/every 3 days, and the results are depicted in FIGS. 11a and 11b.\nAnatomical and histological toxicity assays were performed on livers, kidneys and spleens from the mice to which bruceantin had been orally administered. In order to analyze in vivo toxicity of bruceantin, liver, kidney, and spleen tissues from 22RV1 xenograft mouse models were analyzed after oral administration at a dose of 2 mg/kg/every 2 days, and the results are depicted in FIGS. 12a and 12d."}, "[10]": {"tested_on": "AR-V7 transcriptional activity", "assay": "MMTV-LUC luciferase reporter assay in 22RV1 cells, DHT− (screening and IC50)", "assay_type": "cell-based", "procedure": "as §2, §3"}}, "note": "Where two headings read alike, the source gives them in different places.", "data": [{"smiles": "COC(=O)[C@@]12OC[C@]34[C@H]([C@@H](O)[C@@H]1O)[C@@]1(C)CC(=O)C(O)=C(C)[C@@H]1C[C@H]3OC(=O)[C@H](OC(=O)/C=C(\\C)C(C)C)[C@@H]24", "note": "[Bruceantin, bruceantin]", "values": [{"measurement": "specificity of cell growth inhibition", "setting": "[1]", "value": "inhibitory activity specifically against AR- and AR-V7-positive prostate cancer cells"}, {"measurement": "Tumor (ave)", "setting": "[2]; Day 0", "value": 57.5}, {"measurement": "Tumor (ave)", "setting": "[2]; Day 3", "value": 81.7}, {"measurement": "Tumor (ave)", "setting": "[2]; Day 6", "value": 161.6}, {"measurement": "Tumor (ave)", "setting": "[2]; Day 9", "value": 250.2}, {"measurement": "Tumor (ave)", "setting": "[2]; Day 12", "value": 428.0}, {"measurement": "Tumor (ave)", "setting": "[2]; Day 15", "value": 676.3}, {"measurement": "Tumor (ave)", "setting": "[2]; Day 18", "value": 895.7}, {"measurement": "Tumor (ave)", "setting": "[2]; Day 21", "value": 938.5}, {"measurement": "Tumor (ave)", "setting": "[2]; Day 24", "value": 1005.7}, {"measurement": "inhibition of in vivo tumor growth of CRPC cells", "setting": "[2]; nude mice, 22RV1 cells, dose of 1 mg/kg", "value": "effectively inhibit in vivo tumor growth"}, {"measurement": "toxicity on blood indices", "setting": "[3]; compared to the control vehicle, both routes", "value": "no toxicity on blood indices"}, {"measurement": "ALT (ave)", "setting": "[3]; ip, 1 mg/kg", "value": 61.2}, {"measurement": "AST (ave)", "setting": "[3]; ip, 1 mg/kg", "value": 351}, {"measurement": "AST/ALT (ave)", "setting": "[3]; ip, 1 mg/kg", "value": 6.409}, {"measurement": "CK (ave)", "setting": "[3]; ip, 1 mg/kg", "value": 180}, {"measurement": "Cr (ave)", "setting": "[3]; ip, 1 mg/kg", "value": 0.156}, {"measurement": "LDH (ave)", "setting": "[3]; ip, 1 mg/kg", "value": 1098.6}, {"measurement": "ALT (ave)", "setting": "[3]; po, 2 mg/kg", "value": 72}, {"measurement": "AST (ave)", "setting": "[3]; po, 2 mg/kg", "value": 263.4}, {"measurement": "AST/ALT (ave)", "setting": "[3]; po, 2 mg/kg", "value": 3.658}, {"measurement": "CK (ave)", "setting": "[3]; po, 2 mg/kg", "value": 247.5}, {"measurement": "Cr (ave)", "setting": "[3]; po, 2 mg/kg", "value": 0.138}, {"measurement": "LDH (ave)", "setting": "[3]; po, 2 mg/kg", "value": 1456.8}, {"measurement": "activity at 0.1 µM", "setting": "[4]; 0.1 uM, with DHT, control = 100", "value": "4 ± 0.5", "unit": "%"}, {"measurement": "activity at 1 µM", "setting": "[4]; 1 uM, with DHT, control = 100", "value": "4.4 ± 0.3", "unit": "%"}, {"measurement": "activity at 10 µM", "setting": "[4]; 10 uM, with DHT, control = 100", "value": "3.9 ± 0.4", "unit": "%"}, {"measurement": "IC50", "setting": "[4]; AR transcriptional activity", "value": 2.08, "unit": "nM"}, {"measurement": "fold more potent inhibitory activity against CRPC cell growth than ailanthone", "setting": "22RV1 cells; versus ailanthone", "value": 16, "unit": "fold"}, {"measurement": "IC50", "setting": "22RV1 cells; Homo sapiens, MTT, 72 hours, read-out: IC50 (22RV1 cell growth)", "value": 2.07, "unit": "nM"}, {"measurement": "IC50", "setting": "[5]", "value": 2.05, "unit": "nM"}, {"measurement": "effect on weights of the mice", "setting": "[6]; 1 mg/kg", "value": "no effect on weights of the mice"}, {"measurement": "hepatotoxicity", "setting": "[6]; 1 mg/kg", "value": "nor to cause hepatotoxicity"}, {"measurement": "AST/ALT (ave)", "setting": "[6]; 0.5 mg/kg", "value": 2.5}, {"measurement": "AST/ALT (ave)", "setting": "[6]; 1 mg/kg", "value": 3.3}, {"measurement": "inhibitory effect on tumor metastasis and growth", "setting": "[7]", "value": "inhibit metastatic tumor growth and the number of metastases"}, {"measurement": "inhibition of tumor growth", "setting": "[8]", "value": "effectively inhibit tumor growth"}, {"measurement": "Tumor (ave)", "setting": "[8]; Day 0", "value": 73.0453}, {"measurement": "Tumor (ave)", "setting": "[8]; Day 3", "value": 89.5358}, {"measurement": "Tumor (ave)", "setting": "[8]; Day 5", "value": 75.35}, {"measurement": "Tumor (ave)", "setting": "[8]; Day 7", "value": 88.811}, {"measurement": "Tumor (ave)", "setting": "[8]; Day 9", "value": 157.6571}, {"measurement": "Tumor (ave)", "setting": "[8]; Day 11", "value": 189.9515}, {"measurement": "Tumor (ave)", "setting": "[8]; Day 13", "value": 256.5573}, {"measurement": "Tumor (ave)", "setting": "[8]; Day 15", "value": 348.6721}, {"measurement": "Tumor (ave)", "setting": "[8]; Day 17", "value": 485.1394}, {"measurement": "Tumor (ave)", "setting": "[8]; Day 19", "value": 567.0807}, {"measurement": "Tumor (ave)", "setting": "[8]; Day 21", "value": 616.549}, {"measurement": "morphological and histological changes in liver, kidney, spleen", "setting": "[9]; po, 2 mg/kg", "value": "no morphological and histological changes (toxicity)"}, {"measurement": "morphological and histological changes in liver, kidney, spleen", "setting": "[9]; sc, 1 mg/kg", "value": "no morphological and histological changes (toxicity)"}, {"measurement": "activity at 0.1 µM", "setting": "[10]; Homo sapiens, 22RV1 cells, 0.1 uM, no DHT, control = 100", "value": "13.4 ± 2.5", "unit": "%"}, {"measurement": "activity at 1 µM", "setting": "[10]; Homo sapiens, 22RV1 cells, 1 uM, no DHT, control = 100", "value": "15.2 ± 1.6", "unit": "%"}, {"measurement": "activity at 10 µM", "setting": "[10]; Homo sapiens, 22RV1 cells, 10 uM, no DHT, control = 100", "value": "16.4 ± 2.3", "unit": "%"}, {"measurement": "IC50", "setting": "[10]; Homo sapiens, 22RV1 cells, AR-V7 transcriptional activity", "value": 3.14, "unit": "nM"}, {"measurement": "potency as inhibitor of AR/AR-V7 transcriptional activity compared with ailanthone", "setting": "[10]; in both CRPC 22RV1 cells and androgen-dependent LNCaP cells", "value": "more potent inhibitors against AR/AR-V7 transcriptional activity"}]}]}
